Measurements: patent publication US20250275993A1, “GLYCOSYLATION INHIBITORS AS THERAPEUTICS FOR STROKE” (The Regents of the University of California, priority 2022, published 2025)

Experiments:
retinal vasculature = experiment: Retinal neovascularization after intravitreal injection; format: in vivo, mouse; conditions: 500 ng ManN or Kif, 200 ng bFGF intravitreally; after seven days
Method: The effect of ManN and Kif on inducing retinal neovascularization was assessed. The findings in cultured eye-derived EC were extended to a suitable in vivo model system. The mouse retina has been used extensively over the past decades to study both physiological and pathological angiogenesis. To obtain a detailed description of the retinal vasculature, images from retinal flat mounts were processed for vascular area fraction (ratio of area covered by blood vessels to total retinal area). Using this model, the effects of ManN in retinal neovascularization were assessed. Kif was also tested in this model because it is a water-soluble inhibitor and its mechanism of glycosylation inhibition is well established. In addition, it shares with ManN the ability to activate ERK, AKT and stress pathways in BCEC (FIG. 7E).
Assessment of retinal angiogenesis following intravitreal administration was done. Briefly, 6-8 weeks old C57BL/6 male mice were randomly allocated to different groups and anesthetized with ketamine/Xylazine cocktail. The indicated amounts of ManN, Kif or bFGF (R&D systems, AF-233-NA) in 1 μl of PBS and PBS vehicle control were injected intravitreally with a 33-gauge Hamilton syringe. Seven days after injection, animals were euthanized. Eyes were then enucleated and fixed in 4% paraformaldehyde (PFA) for 30 mins. Retinas were separated and stained with anti-CD31 immunofluorescence (IF) to evidence the vasculature. Evaluations were performed by an investigator blinded to the treatment. For CD31 IF, rat anti-mouse antibody (BD Biosciences, CAT #550274) was diluted 1:100 and incubated overnight at 4° C. After 4-hour incubation with the Alexa Fluor-488-conjugated anti-rat antibody (Life Technologies, A11006), whole mounts were imaged via the 488 nm channel using AIR Confocal STORM super-resolution system (Nikon). Quantification of vascular density in choroids and retina was carried out by Image J. Each experiment was repeated three times with similar results, and each treatment group consists of 5 individual samples.

[1] = tested on: bovine choroidal microvascular endothelial cells (BCEC); experiment: BCEC proliferation assay (AlamarBlue / crystal violet); format: cell-based
Method: The effect of ManN on EC proliferation was assessed.
AlamarBlue detects mitochondria activity as an indication of cell viability which correlates with cell number at certain ranges.
Proliferation assays with BCECs and BRECs were performed. Log-phase growing BCECs or BRECs (passage <10) were trypsinized, re-suspended and seeded in 96-well plates (no coating) in low-glucose DMEM supplemented with 10% bovine calf serum, 2 mM glutamine, and antibiotics (growth medium), at a density of 1200-1500 cells per well in 200 μl volume. All reagents were added at the indicated final concentrations. After 3-6 days, cells were incubated with AlamarBlue for 4 hrs. Fluorescence was measured at 530 nm excitation wavelength and 590 nm emission wavelength. The experiments were repeated at least three times. […] 20% methanol or 0.05% DMSO served as negative controls. […] Human RMVECs and human adult DMVECs were split into Gelatin-coated 96 wells (2000 cells per well) in low glucose DMEM containing 10% FBS. 1200 cells/well was set up for proliferation assay in low glucose media containing 0.5% FBS. Data was collected at day 4 or 5. HUVEC (p7-10) were grown on gelatin-coated plate until it reached 70-80% confluency.
On the day of the assay, cells were dissociated with 0.05% trypsin, which was neutralized with 0.5% FBS-containing EBM. Cells were briefly spun and then re-suspended in 0.5% FBS-media. Cells were counted and plated in 96-well, 1000 cells/well. Triplicate wells were used for each treatment. Data were collected at day 3, and then cells were fixed in 4% paraformaldehyde for 15 min before adding crystal violet. Cell-covered areas were quantified after taking pictures by Image J software.

ischemic hindlimb = experiment: Hindlimb ischemia model and evaluation of blood flow; format: in vivo, mouse; conditions: for blood vessel density vs H2O-treated control (CD31): 3 weeks post-ligation; for blood flow recovery one week after surgery: 20% ManN orally or 1 mg/ml Kif ip every other day, H2O group 25%
Method: The angiogenic effects of ManN and Kif in a mouse hindlimb ischemia model were assessed. The activity of ManN in a chronic ischemia model that might more specifically reflect its effects as an endothelial cell mitogen and a pro-angiogenic factor was assessed, and the hindlimb ischemia model in the mouse was considered. Several variants have been described, depending on which vessel is occluded. The variant chosen consists in ligation and excision of the femoral artery, which results in more severe ischemia compared to simple femoral artery ligation. Occlusion of two vessels produces more severe ischemia, but has the disadvantage of inducing severe pain and distress, as well as frequent ulcerations and necrosis in mice.
Oral administration of ManN was tested in this femoral artery ligation-excision model. Since Kif has been previously administered intraperitoneally for in vivo studies, this route was employed. Laser Doppler Perfusion Imaging (LDPI) was used as a non-invasive method to monitor time and extent of the blood flow recovery in the ischemic limb. Serial examination of blood flow was taken with LDPI and increment of the perfusion ratio of ischemic (ligated; left side) to non-ischemic (sham; right side) hindlimbs after ligation was used to indicate a recovery of blood flow. Starting immediately after surgery, mice were orally fed with 20% ManN or 1 mg/ml Kif ip every other day, as described in methods. One week after surgery, the perfusion ratio in H2O-fed group indicated a blood flow recovery of […], a value that is in good agreement with published data with the same type of lesion, in the same strain of mice.
C57BL/6 male mice (6-8 weeks old) were subjected to unilateral hindlimb surgery under anesthesia with ketamine/xylazine cocktail. Briefly, the left femoral artery was separated from the vein and nerve, ligated proximally, and excised. The right hindlimb served as control. Blood flow was measured by using a laser Doppler perfusion imager (PeriScan PSI; Perimed). Ischemic and nonischemic limb perfusion was measured before and after surgery and 1, 2 and 3 weeks later. After surgery, mice were randomly allocated to different groups (8 mice for each group). 200 μl of 20% ManN was orally administrated every other day from 3rd day after surgery. 200 μl of 1 mg/nil Kif was administrated through ip injection every other day. H2O was used as a vehicle control. The final blood flow values were expressed as the ratio of ischemic to nonischemic hindlimb perfusion from the same animal. Quantification of blood vessel area was carried out as described.

Bip, CHOP, ATF-6 = experiment: Western blot of UPR responsive proteins in BCECs; format: cell-based, bovine

Compound | increase in density of retinal vessels vs PBS group (retinal vasculature) [%] | BCEC proliferation by glycosylation inhibitors ([1]; 0.01 to 100 μM, 3 days, absence or presence of 5 ng/ml VEGF) | blood vessel density vs H2O-treated control (CD31) (ischemic hindlimb) [times higher] | blood flow recovery one week after surgery (ischemic hindlimb) | Bip expression by glycosylation inhibitors (Bip, CHOP, ATF-6; media without growth factors for 24 hours) | additivity with VEGF in promoting BCEC proliferation ([1]; 5 ng/ml VEGF) | additivity with bFGF in promoting BCEC proliferation ([1]; 20 ng/ml bFGF, FIG. 11A) | shape of dose-response on BCEC proliferation ([1]; 0.5 μM to 1 mM, 5-6 days, with or without VEGF) | dose range with significant stimulatory effects on BCEC proliferation ([1]; BCEC) | maximal fold increase in EC-covered surface ([1]; ManN at 50 μM alone, crystal violet, FIG. 1A) [fold] | cytotoxicity in glucose-free media ([1]; as little as 4 μM ManN, even in the presence of VEGF) | additivity between ManN and VEGF in glucose-free media ([1]; glucose-free media) | synergy between ManN and VEGF in promoting Bip or CHOP expression (Bip, CHOP, ATF-6; FIG. 5B) | time of CHOP induction (Bip, CHOP, ATF-6; ManN, dose-dependent) | Bip expression (Bip, CHOP, ATF-6; growing cells deprived of growth factor, evident at 24 and 48 hours)
O=C1N[C@@H]2[C@@H](O)[C@@H](O)[C@H](O)[C@@H](CO)N2C1=O [Kif, Kifunensine, reference compound] | ~20 | stimulated in a dose-dependent fashion | 1.8 | ~47% | dose-dependent induction of Bip expression |  |  |  |  |  |  |  |  |  | 
N[C@H](C=O)[C@@H](O)[C@H](O)[C@H](O)CO [ManN, 2-Amino-2-deoxy-D-mannose] | ~30 |  | 2.3 | about 40% |  | additive with VEGF in promoting BCEC proliferation | Additive effects | bell-shaped dose-response curve, with inhibition at higher concentrations | 5-500 UM | ~6.5 | significant cytotoxicity | abolished | No synergy | about 6 hours | significantly turn on Bip expression in a concentration-dependent manner
